Structures can show the parent of a compound that is named as a salt.
Assay: Simulated smoking tests (Example 14)
Details: API alkalinized with excess NaOH, heated with a Sterno burner for 15 minutes

## CN1CC[C@]23c4c5ccc(O)c4O[C@H]2[C@@H](O)C=C[C@H]3[C@H]1C5 [Morphine sulfate pentahydrate, morphine hemi(sulfate pentahydrate)]
  API volatilized: about 21%

From patent publication US12161754B2, “Abuse deterrent morphine sulfate dosage forms” (Purdue Pharma L.P., priority 2017, dated 2024)
